The record followed here is US20250340527A1, “RIPK2 AND NOD INHIBITORS” (Trustees of Tufts College, priority 2022, published 2025).

The target of series [1] is Recombinant RIPK2 protein (Homo sapiens, UniProt O43353). The series can be described thus: RIPK2 enzyme assay (ADP-Glo). The format is biochemical. Particulars: NI: no inhibition observed. How it is done: Recombinant RIPK2 protein (20 ng per reaction) is diluted in the reaction buffer consisting of 40 mM Tris (pH 7.5); 20 mM MgCl2; 0.1 mg/ml BSA; 50 μM DTT. Diluted protein is added to low volume white 384 well plates (2 μL/well). Inhibitors are diluted in reaction buffer (final 25% DMSO), 1 μL is added to each well and incubated 5 min at room temperature. Reactions are initiated by the addition of 2 μL of 100 μM ATP and 1 mg/ml RS repeat peptide (SignalChem) in the reaction buffer. Plates are sealed with plastic coverslips and incubated at room temperature for 2 h. Reactions are stopped by the addition of 5 μL of ADP-Glo reagent (Promega) and ADP generation reaction is performed for 40 min at room temperature. Luminescence signal is generated by the addition of 10 μL of Kinase detection reagent (Promega) for 30 min at room temperature. Luminescence signals are determined using appropriate luminescence plate-reader (typical integration time 0.3-1 sec). To calculate percent inhibition, average background signal is subtracted from test well and maximal signal wells. Inhibition, %=(1−(test signal/maximal signal))*100. The percent inhibition at a specified concentration is determined or IC50 values are calculated based on a dose range of inhibitor concentrations using non-linear regression in GraphPad Prism software.
Sequence of Recombinant RIPK2 protein (O43353 whole entry, species assumed): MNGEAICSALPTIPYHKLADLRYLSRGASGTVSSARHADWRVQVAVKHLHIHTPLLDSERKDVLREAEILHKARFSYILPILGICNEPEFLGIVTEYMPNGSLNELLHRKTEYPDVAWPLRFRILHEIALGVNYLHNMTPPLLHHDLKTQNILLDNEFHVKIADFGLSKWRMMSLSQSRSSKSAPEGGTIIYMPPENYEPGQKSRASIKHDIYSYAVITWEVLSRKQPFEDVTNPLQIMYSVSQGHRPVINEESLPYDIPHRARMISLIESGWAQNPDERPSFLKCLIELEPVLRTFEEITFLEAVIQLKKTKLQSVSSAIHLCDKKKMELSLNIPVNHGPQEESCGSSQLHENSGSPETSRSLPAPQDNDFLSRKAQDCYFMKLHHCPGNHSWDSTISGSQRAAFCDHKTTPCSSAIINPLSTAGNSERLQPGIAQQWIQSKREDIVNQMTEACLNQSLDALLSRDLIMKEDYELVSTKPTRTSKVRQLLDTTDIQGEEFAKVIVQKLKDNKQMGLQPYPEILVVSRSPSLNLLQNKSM

Series [2] has as its system HEK-Blue cells expressing human NOD2. Briefly: NOD2 signaling assay #1 (HEK-Blue NFkB-SEAP reporter, L18-MDP stimulated). The series is classed as cell-based. Particulars: 1 ng/ml L18-MDP, read-out: IC50 (nM) HEKBlue. The method, then: HEK-Blue cells expressing human NOD2 and NFkB-SAEP reporter (Invivogen) are seeded into 96 well clear plates at 7.5×10^3 cells per well in 100 μL of DMEM media supplemented with 10% FBS and 1% antibiotic-antimycotic mix. Cells are allowed to attach for 48 h in 5% CO2 tissue culture incubator at 37° C. On the morning of the experiment, media in the wells is replaced with 100 μL of HEK-Blue detection media (Invivogen). Cells are treated with the inhibitors, diluted in DMSO (0.5 μL per well) for 15 min in 5% CO2 tissue culture incubator at 37° C. After that, cells are stimulated by the addition of 1 ng/ml L18-MDP (Invivogen). Cells are incubated in 5% CO2 tissue culture incubator at 37° C. for 8 h and absorbance, corresponding to the SEAP in the media, is determined in Wallac3V plate reader (Perkin Elmer). Inhibition, %=(1−((sample signal-unstimulated and DMSO treated cells)/(L18-MDP stimulated and DMSO treated cells−unstimulated and DMSO treated cells)))*100. IC50 values are calculated based on a dose range of inhibitor concentrations using non-linear regression in GraphPad Prism software.

For series [3], the system named is NOD2 cellular signaling in THP1 cells. Briefly: NOD2 signaling assay #2 (THP1 NFkB-SEAP reporter, L18-MDP stimulated). The series is classed as cell-based. Particulars: Homo sapiens, THP-1, 10 ng/ml L18-MDP. How it is done: THP1 cells expressing NFkB-SAEP reporter (Invivogen) are seeded into 96 well clear plates at 5×10^4 cells per well in 100 μL of RPM11640 media supplemented with 10% FBS and 1% antibiotic-antimycotic mix. Cells are treated with the inhibitors, diluted in DMSO ([…] per well) for 15 min in 5% CO2 tissue culture incubator at 37° C. After that, cells are stimulated by the addition of 10 ng/ml L18-MDP (Invivogen). Cells are incubated in 5% CO2 tissue culture incubator at 37° C. for 8 h and absorbance, corresponding to the SEAP in the media, is determined in Wallac3V plate reader (Perkin Elmer). Inhibition, %=(1−((sample signal-unstimulated and DMSO treated cells)/(L18-MDP stimulated and DMSO treated cells−unstimulated and DMSO treated cells)))*100. IC50 values are calculated based on a dose range of inhibitor concentrations using non-linear regression in GraphPad Prism software.

Series [4] is described as follows: Pharmacokinetic analysis in mice. The series is classed as in vivo, C57BL/6 mice. An excerpt: The pharmacokinetic properties of SS-1-64 are summarized in the following table along with a comparator RIPK2/NOD inhibitor CSLP37, N-(5-(2-Amino-5-(4-(piperazin-1-yl)phenyl)pyridin-3-yl)-3-fluoro-2-methoxyphenyl)propane-1-sulfonamide (U.S. Pat. No. 11,135,298 to Cuny et al.).

[5] abbreviates: female, C57BL/6, mouse, in vivo, ip, 10 mg/kg.
[6] abbreviates: single dose 10 mg/kg intraperitoneally, female C57BL/6 mice.

In general, IC50 refers to the point on the concentration scale where inhibition reaches its midpoint. Broadly, the Tmax is the time from dosing to the highest level. For orientation: AUC means concentration integrated over time.

Molecules are shown by their SMILES. Like-named read-outs stand apart in the source and are kept apart here.

Consider `CCCS(=O)(=O)N(C)c1cc(-c2cc(-c3ccc(N4CCNCC4)cc3)cnc2N)cc(F)c1OC` [SS-1-39, N-(5-(2-amino-5-(4-(piperazin-1-yl)phenyl)pyridin-3-yl)-3-fluoro-2-methoxyphenyl)-N-methylpropane-1-sulfonamide], for which the figures for the IC50 in series [1] and in series [2] were 137 nM and 1.2 nM, respectively.

As to `COc1c(F)cc(-c2cc(-c3ccc(N4CCNCC4)cc3)cnc2N)cc1NS(C)(=O)=O` [SS-1-33, N-(5-(2-amino-5-(4-(piperazin-1-yl)phenyl)pyridin-3-yl)-3-fluoro-2-methoxyphenyl)methanesulfonamide], the values for the IC50 in series [1] and in series [2] were 29 nM and 0.17 nM, respectively.

Regarding `CCCS(=O)(=O)Nc1cc(-c2cc(-c3ccc(C4CCNCC4)cc3)cnc2N)cc(F)c1OC` [SS-1-14, N-(5-(2-amino-5-(4-(piperidin-4-yl)phenyl)pyridin-3-yl)-3-fluoro-2-methoxyphenyl)propane-1-sulfonamide], the results for the IC50 in series [1] and in series [2] were 11 nM and 0.06 nM, respectively.

As to `COc1cc(-c2cc(-c3ccc(C4CCN(C)CC4)cc3)cnc2N)cc(NC(C)=O)c1OC` [SS-2-41, N-(5-(2-amino-5-(4-(1-methylpiperidin-4-yl)phenyl)pyridin-3-yl)-2,3-dimethoxyphenyl)acetamide], the midpoint of inhibition in series [3], the IC50, lay at 0.1 nM.

With `CCCS(=O)(=O)Nc1cc(-c2cc(C#CCN3CCN(C)CC3)cnc2N)cc(F)c1OC` [SS-1-66, N-(5-(2-amino-5-(3-(4-methylpiperazin-1-yl)prop-1-yn-1-yl)pyridin-3-yl)-3-fluoro-2-methoxyphenyl)propane-1-sulfonamide], in series [3], half-maximal inhibition (IC50) was put at 20 nM.

In turn, `COc1c(F)cc(-c2cc(-c3ccc(C4CCN(C)CC4)cc3)cnc2N)cc1N(C)S(C)(=O)=O` [SS-1-50, N-(5-(2-amino-5-(4-(1-methylpiperidin-4-yl)phenyl)pyridin-3-yl)-3-fluoro-2-methoxyphenyl)-N-methylmethanesulfonamide] displayed an IC50 in series [3] of 1.2 nM.

In the case of `CCCS(=O)(=O)Nc1cc(-c2cc(Br)cnc2N)cc(F)c1OC` [SS-1-5, N-(5-(2-amino-5-bromopyridin-3-yl)-3-fluoro-2-methoxyphenyl)propane-1-sulfonamide], the concentration for half-maximal inhibition (IC50) in series [2] was 57 nM.

Consider `CCCS(=O)(=O)Nc1cc(-c2cc(-c3ccc(N4CCNCC4)cc3)cnc2NC)cc(F)c1OC` [SS-1-10, N-(3-fluoro-2-methoxy-5-(2-(methylamino)-5-(4-(piperazin-1-yl)phenyl)pyridin-3-yl)phenyl)propane-1-sulfonamide], for which the IC50 in series [2] was 16 nM.

As for `CCCS(=O)(=O)Nc1cc(-c2cc(-c3ccc(N4CCNCC4)cc3)cnc2N)cc(F)c1OC` [CSLP37, N-(5-(2-Amino-5-(4-(piperazin-1-yl)phenyl)pyridin-3-yl)-3-fluoro-2-methoxyphenyl)propane-1-sulfonamide, reference compound], in series [4] (setting [5]), the “Cl (clearance)” value is 59.66 ± 15.09 mL/min/kg, the Cmax was determined as 550 ± 200 nM, the Tmax worked out at 1.2 ± 0.4472 h and the “V (volume of distribution)” value is 24.04 ± 6.15 L/kg. Moreover, in series [4] (setting [5]), the “t1/2 (plasma elimination half-life)” value is listed as 4.66 ± 0.24 h. The compound further gave an AUC in series [4] (mouse, in vivo, ip, 10 mg/kg) of 2920 ng·h/mL.

Regarding `CCCS(=O)(=O)Nc1cc(-c2cc(-c3ccc(N4CCN(C)CC4)cc3)cnc2N)cc(F)c1OC` [SS-1-18, N-(5-(2-amino-5-(4-(4-methylpiperazin-1-yl)phenyl)pyridin-3-yl)-3-fluoro-2-methoxyphenyl)propane-1-sulfonamide], the IC50 in series [1] turned out to be 10 nM; in series [2], 0.03 nM.

In series [3], `COc1cc(-c2cc(-c3ccc(C4CCN(C)CC4)cc3)cnc2N)cc(NS(C)(=O)=O)c1OC` [SS-1-64, N-(5-(2-amino-5-(4-(1-methylpiperidin-4-yl)phenyl)pyridin-3-yl)-2,3-dimethoxyphenyl)methanesulfonamide] yielded an IC50 of 0.014 nM. Further, the Cmax in series [4] (mouse, in vivo, ip, single dose 10 mg/kg intraperitoneally, 6% Captisol in water, female C57BL/6 mice, read-out: maximum plasma concentration (Cmax)) amounted to 1630 ± 1200 nM. Further, the Tmax in series [4] (mouse, in vivo, ip, single dose 10 mg/kg intraperitoneally, female C57BL/6 mice, read-out: Tmax) was 1 h; in series [4] (single dose 10 mg/kg intraperitoneally, female C57BL/6 mice, plasma), 1 ± 0 h. The half-life in series [4] (mouse, in vivo, ip, single dose 10 mg/kg intraperitoneally, female C57BL/6 mice, read-out: t1/2 (plasma elimination half-life) (converted)) is 7.88 ± 0.28 h. Also, the “Cl (clearance)” value in series [4] (setting [6]) worked out at 53.56 ± 5.68 mL/min/kg. Besides, in series [4] (setting [6]), the “V (volume of distribution)” value came out at 36.45 ± 2.61 L/kg.

For the compound `COc1c(F)cc(-c2cc(-c3ccc(C4CCN(C)CC4)cc3)cnc2N)cc1NS(C)(=O)=O` [SS-1-43, N-(5-(2-amino-5-(4-(1-methylpiperidin-4-yl)phenyl)pyridin-3-yl)-3-fluoro-2-methoxyphenyl)methanesulfonamide], inhibition in series [3] was half-maximal at 0.1 nM (IC50).

Consider `CCCS(=O)(=O)Nc1cc(-c2cc(-c3ccc(C4CCN(C)CC4)cc3)cnc2N)cc(F)c1OC` [SS-1-38, N-(5-(2-amino-5-(4-(1-methylpiperidin-4-yl)phenyl)pyridin-3-yl)-3-fluoro-2-methoxyphenyl)propane-1-sulfonamide], for which the IC50 was 31 nM in series [1] and 0.07 nM in series [2].
